This passage reports MIC, IC50 and Ratio results from ChEMBL document CHEMBL3421558, “Structure activity relationship of substituted 1,5-naphthyridine analogs of oxabicyclooctane-linked novel bacterial topoisomerase inhibitors as broad-spectrum antibacterial agents (Part-4)” (Bioorg Med Chem Lett, 2015).

Molecules are shown by their SMILES. Values after ≈ are worked out from the molar mass of the structure shown.

For assay [1], the system named is Staphylococcus aureus. Briefly: Antimicrobial activity against Staphylococcus aureus Smith by micro broth dilution or agar based method. The note with it: Staphylococcus aureus, Smith; read-out: MIC. The class given is functional. On the technique in general: Broth dilution looks for growth in wells or tubes with falling amounts of substance.
In assay [2] the test system is Staphylococcus aureus. Briefly: Antimicrobial activity against methicillin-resistant Staphylococcus aureus OIT971 by micro broth dilution or agar based method. The class given is functional.
For assay [3], the system named is Streptococcus pneumoniae. Put plainly: Antimicrobial activity against Streptococcus pneumoniae IID553 by micro broth dilution or agar based method. It counts as functional. The note with it: Streptococcus pneumoniae, IID553; read-out: MIC.
Assay [4] has as its system Enterococcus faecium. Briefly: Antimicrobial activity against VanA expressing vancomycin-resistant Enterococcus faecium by micro broth dilution or agar based method. It counts as functional. The note with it: Enterococcus faecium; read-out: MIC.
Assay [5] concerns Escherichia coli. Briefly: Antimicrobial activity against Escherichia coli ATCC 25922 by micro broth dilution or agar based method. It counts as functional. The note with it: Escherichia coli, ATCC 25922; read-out: MIC.
Assay [6] relates to Acinetobacter baumannii. Briefly: Antimicrobial activity against Acinetobacter baumannii IID876 by micro broth dilution or agar based method. The class given is functional. Conditions: Acinetobacter baumannii, IID876; read-out: MIC.
Assay [7] concerns Pseudomonas aeruginosa. Put plainly: Antimicrobial activity against Pseudomonas aeruginosa PAO1 by micro broth dilution or agar based method. The class given is functional. Conditions: Pseudomonas aeruginosa, PAO1; read-out: MIC.
Assay [8] addresses Voltage-gated inwardly rectifying potassium channel KCNH2 (Homo sapiens, UniProt Q12809). Put plainly: Inhibition of MK499 binding to human ERG.
The test system of assay [9] is Staphylococcus aureus. Briefly: Potency index, ratio of MIC for quinolone-resistant Staphylococcus aureus MS5935 to MIC for quinolone-[…]. It counts as functional.

Chain of Voltage-gated inwardly rectifying potassium channel KCNH2 (Q12809 whole entry): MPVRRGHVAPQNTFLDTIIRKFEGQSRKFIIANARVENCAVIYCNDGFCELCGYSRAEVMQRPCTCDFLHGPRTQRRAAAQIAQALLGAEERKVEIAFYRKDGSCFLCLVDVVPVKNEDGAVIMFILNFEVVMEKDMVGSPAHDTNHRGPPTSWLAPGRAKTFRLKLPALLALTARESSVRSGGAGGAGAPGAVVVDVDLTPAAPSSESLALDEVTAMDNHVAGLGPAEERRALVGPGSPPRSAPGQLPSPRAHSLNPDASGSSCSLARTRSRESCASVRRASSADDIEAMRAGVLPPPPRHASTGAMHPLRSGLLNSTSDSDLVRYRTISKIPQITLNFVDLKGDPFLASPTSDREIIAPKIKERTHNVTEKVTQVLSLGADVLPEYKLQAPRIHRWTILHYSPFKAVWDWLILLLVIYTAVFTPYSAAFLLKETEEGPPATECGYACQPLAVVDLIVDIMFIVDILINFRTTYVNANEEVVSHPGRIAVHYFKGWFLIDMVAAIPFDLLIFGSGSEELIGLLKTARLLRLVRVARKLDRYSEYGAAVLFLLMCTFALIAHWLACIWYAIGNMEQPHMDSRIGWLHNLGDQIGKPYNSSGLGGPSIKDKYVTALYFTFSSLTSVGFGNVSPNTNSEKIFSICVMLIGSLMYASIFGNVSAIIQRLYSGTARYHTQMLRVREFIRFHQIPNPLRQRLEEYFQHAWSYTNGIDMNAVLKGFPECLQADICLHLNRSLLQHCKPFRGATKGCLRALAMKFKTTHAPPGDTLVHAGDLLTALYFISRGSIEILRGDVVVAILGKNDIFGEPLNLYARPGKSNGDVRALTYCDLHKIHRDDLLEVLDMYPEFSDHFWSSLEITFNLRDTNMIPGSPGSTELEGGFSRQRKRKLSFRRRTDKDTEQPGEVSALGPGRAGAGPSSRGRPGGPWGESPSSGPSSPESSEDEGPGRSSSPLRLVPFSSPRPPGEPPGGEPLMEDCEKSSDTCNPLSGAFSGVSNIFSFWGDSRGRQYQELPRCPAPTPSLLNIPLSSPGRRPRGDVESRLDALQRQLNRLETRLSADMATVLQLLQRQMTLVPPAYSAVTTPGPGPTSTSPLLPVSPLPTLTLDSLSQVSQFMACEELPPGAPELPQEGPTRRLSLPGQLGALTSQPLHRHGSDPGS

Broadly, the MIC is the least concentration at which growth counts as inhibited. In general, IC50 refers to the point on the concentration scale where inhibition reaches its midpoint. As to `O=C1COc2ccc(CNC34CCC(CCc5c(F)cnc6ccc(N7CCOCC7)nc56)(CC3)OC4)nc2N1`, the minimum inhibitory concentration (MIC) in [1] was 0.5 µg/mL (≈ 0.911 µM); in [2], 0.25 µg/mL (≈ 0.456 µM); in assay [3] it was 4 µg/mL (≈ 7.29 µM); in assay [4], 8 µg/mL (≈ 14.6 µM); in assay [5], 16 µg/mL (≈ 29.2 µM); in assay [6], 16 µg/mL (≈ 29.2 µM). For the same compound, the MIC in [7] was 16 µg/mL (≈ 29.2 µM). In assay [8], this compound came in with an IC50 of 11.5 µM. For the same compound, in assay [9], the Ratio is under 4.

On to `COc1ccc2nc(N3CCN(C)CC3)c(F)c(CCC34CCC(NCc5ccc6c(n5)NC(=O)CO6)(CC3)CO4)c2n1`, for which the MIC in assay [1] was found to be 32 µg/mL (≈ 54.1 µM); in [2], 16 µg/mL (≈ 27 µM); in assay [3], 32 µg/mL (≈ 54.1 µM); in [4], 32 µg/mL (≈ 54.1 µM); in assay [5] it was 32 µg/mL (≈ 54.1 µM); in [6] it was 32 µg/mL (≈ 54.1 µM). Besides, the MIC in assay [7] was found to be 32 µg/mL (≈ 54.1 µM). Besides, the Ratio in [9] is listed as under 4.

As to `Cc1cc(S(C)(=O)=O)nc2c(CCC34CCC(NCc5ccc6c(n5)NC(=O)CO6)(CC3)CO4)ccnc12`, the minimal inhibitory concentration (MIC) stood at 1 µg/mL (≈ 1.86 µM) in [1]; 1 µg/mL (≈ 1.86 µM) in assay [2]; 16 µg/mL (≈ 29.8 µM) in assay [3]; 16 µg/mL (≈ 29.8 µM) in assay [4]; 32 µg/mL (≈ 59.5 µM) in assay [5]; 16 µg/mL (≈ 29.8 µM) in assay [6]. Also, the MIC in assay [7] amounted to 32 µg/mL (≈ 59.5 µM). Also, in assay [8], the IC50 is 6.71 µM. Besides, the Ratio in assay [9] is under 4.

As for `CN(C)c1ccc2ncc(F)c(CCC34CCC(NCc5ccc6c(n5)NC(=O)CO6)(CC3)CO4)c2n1`, the MIC is 0.25 µg/mL (≈ 0.494 µM) in assay [1]; 0.25 µg/mL (≈ 0.494 µM) in assay [2]; 2 µg/mL (≈ 3.95 µM) in assay [3]; 4 µg/mL (≈ 7.9 µM) in assay [4]; 8 µg/mL (≈ 15.8 µM) in assay [5]; 8 µg/mL (≈ 15.8 µM) in [6]. In assay [7], the minimum inhibitory concentration (MIC) is 8 µg/mL (≈ 15.8 µM).

Turning to `CN(C)c1nc2c(CCC34CCC(NCc5ccc6c(n5)NC(=O)CO6)(CC3)CO4)ccnc2cc1F`, the MIC in assay [1] worked out at 1 µg/mL (≈ 1.97 µM); in assay [2], 1 µg/mL (≈ 1.97 µM); in assay [3], 16 µg/mL (≈ 31.6 µM); in assay [4], 16 µg/mL (≈ 31.6 µM); in assay [5], 16 µg/mL (≈ 31.6 µM); in assay [6], 16 µg/mL (≈ 31.6 µM). For the same compound, in assay [7], the MIC turned out to be 16 µg/mL (≈ 31.6 µM).

For the compound `O=C1COc2ccc(CNC34CCC(CCc5c(F)cnc6ccc(N7CCS(=O)(=O)CC7)nc56)(CC3)OC4)nc2N1`, the MIC in assay [1] turned out to be 1 µg/mL (≈ 1.68 µM); in [2], 1 µg/mL (≈ 1.68 µM); in [3] it was 4 µg/mL (≈ 6.7 µM); in assay [4], 16 µg/mL (≈ 26.8 µM); in [5], 16 µg/mL (≈ 26.8 µM); in assay [6] it was 16 µg/mL (≈ 26.8 µM). For the same compound, in [7], the minimal inhibitory concentration (MIC) is 16 µg/mL (≈ 26.8 µM). Besides, the Ratio in assay [9] is under 4.

Regarding `COc1cnc2c(CCC34CCC(NCc5ccc6c(n5)NC(=O)CO6)(CC3)CO4)ccnc2c1`, the MIC in [1] was 32 µg/mL (≈ 67.3 µM); in [2], 8 µg/mL (≈ 16.8 µM); in assay [3], 64 µg/mL (≈ 135 µM); in assay [4], 64 µg/mL (≈ 135 µM); in [5] it was 64 µg/mL (≈ 135 µM); in [6] it was 64 µg/mL (≈ 135 µM). In assay [7], the minimal inhibitory concentration (MIC) turned out to be 64 µg/mL (≈ 135 µM).

Turning to `CCOC(=O)c1c(OC)cnc2c(CCC34CCC(NCc5ccc6c(n5)NC(=O)CO6)(CC3)CO4)ccnc12`, the MIC in assay [1], in assay [2], in assay [3], in assay [4], in assay [5] and in [6] was 16 µg/mL (≈ 29.2 µM) each time. Also, the minimum inhibitory concentration (MIC) in assay [7] is 16 µg/mL (≈ 29.2 µM). The compound further registered an IC50 in [8] of 7.87 µM. Besides, the Ratio in assay [9] is listed as under 4.

With `Cc1cc(C#N)nc2c(CCC34CCC(NCc5ccc6c(n5)NC(=O)CO6)(CC3)CO4)ccnc12`, the minimal inhibitory concentration (MIC) stood at 1 µg/mL (≈ 2.06 µM) in assay [1]; 0.5 µg/mL (≈ 1.03 µM) in [2]; 8 µg/mL (≈ 16.5 µM) in assay [3]; 8 µg/mL (≈ 16.5 µM) in assay [4]; 16 µg/mL (≈ 33 µM) in [5]; 4 µg/mL (≈ 8.25 µM) in assay [6]. Also, the MIC in assay [7] was found to be 64 µg/mL (≈ 132 µM).

As for `COc1nc2c(CCC34CCC(NCc5ccc6c(n5)NC(=O)CO6)(CC3)CO4)ccnc2cc1Cl`, the MIC is 0.5 µg/mL (≈ 0.98 µM) in assay [1]; 0.25 µg/mL (≈ 0.49 µM) in assay [2]; 8 µg/mL (≈ 15.7 µM) in assay [3]; 16 µg/mL (≈ 31.4 µM) in assay [4]; 32 µg/mL (≈ 62.7 µM) in assay [5]; 32 µg/mL (≈ 62.7 µM) in assay [6]. Further, in [7], the MIC was 32 µg/mL (≈ 62.7 µM).

For the compound `COc1nc2c(CCC34CCC(NCc5ccc6c(n5)NC(=O)CO6)(CC3)CO4)c(F)cnc2cc1C(F)(F)F`, the MIC in [1], in assay [2], in assay [3], in assay [4], in [5] and in assay [6] was 8 µg/mL (≈ 14.2 µM) each time. Further, in [7], the MIC worked out at 8 µg/mL (≈ 14.2 µM).

With `COc1cc(C)c2nccc(CCC34CCC(NCc5ccc6c(n5)NC(=O)CO6)(CC3)CO4)c2n1`, the minimum inhibitory concentration (MIC) turned out to be 0.125 µg/mL (≈ 0.255 µM) in assay [1]; 0.063 µg/mL (≈ 0.129 µM) in assay [2]; 1 µg/mL (≈ 2.04 µM) in [3]; 8 µg/mL (≈ 16.3 µM) in assay [4]; 8 µg/mL (≈ 16.3 µM) in assay [5]; 8 µg/mL (≈ 16.3 µM) in [6]. In assay [7], the minimal inhibitory concentration (MIC) turned out to be 32 µg/mL (≈ 65.4 µM).
